In US6211244A, “Calcium receptor-active compounds” (priority 1995, dated 2001):

Assays:
calcium receptor = details: cited from earlier work
[1] = test system: HuPCaR 5.2 calcium receptor; assay: fluorescence ([Ca^2+ ]i) in HEK 293 cells transfected with Cep4B containing the HuPCaR 5.2 insert; format: cell-based, human; details: Ca^2+ 10 mM, Mg^2+ 20 mM; 37° C.
Method: Clonal cell lines that stably express the two human and the bovine calcium receptors have been isolated. Calcium receptor cDNAs were subcloned in two different, commercially available expression vectors; pMSG (obtained from Pharmacia) and Cep4B (obtained from Invitrogen). The first vector contains the selectable marker gene for xanthine-guanine phosphoribosyltransferase (gpt) allowing stably transfected cells to overcome the blockade of the purine biosynthetic pathway imposed by addition of 2 μg/ml aminopterin and 25 μg/ml mycophenolic acid. The second vector encodes a gene conferring resistance to the antibiotic hygromycin (used at 200 μg/ml). […]
Cells obtained from the pool of hygromycin selected HEK 293 cells transfected with Cep4B containing the HuPCaR 5.2 insert were plated on collagen coated Aklar squares which had been placed into individual wells of 12-well tissue culture plates. […] Measurements of fluorescence in response to calcium receptor agonists were performed at 37° C. in a spectrofluorimeter using excitation and emission wavelengths of 340 and 510 nm, respectively. For signal calibration, Fmax was determined after addition of ionomycin (40 μM) and the apparent Fmin was determined by addition of 0.3 M EGTA, 2.5 M Tris-HCl; pH 10.

[2] = test system: human parathyroid cell calcium receptor; assay: stimulation of calcium-activated chloride currents in Xenopus oocytes injected with calcium receptor cRNA; format: cell-based; details: calcium-activated chloride current
Method: Representative cDNA inserts for both size classes were subcloned into the plasmid vector pBluescript SK. Linearization followed by in vitro transcription using T7 RNA polymerase produced cRNA transcripts. The cRNA transcripts were injected into Xenopus oocytes (150 ng/μl RNA; 50 nl/oocyte) for functional analysis. Following incubation periods of 2-4 days, the oocytes were assayed for the presence of functional calcium receptors. Both clone types gave rise to functional calcium receptors as assessed by the stimulation of calcium-activated chloride currents upon addition of appropriate calcium receptor agonists. […] Thus, both clones encode a functional, human parathyroid cell calcium receptor.
In addition, pHuPCaR4.0 encodes glutamine (Gln) at aa#925 and glycine (Gly) at position 990 whereas pHuPCaR5.2 encodes arg (Arg) at both equivalent positions. The human CaR gene encodes for Gln and Arg, respectively, at these positions. The difference between the pHuPCaR4.0 cDNA compared to human DNA appears to represent a true sequence polymorphism within the human population while the single base change in pHuPCaR5.2 probably reflects a mutation which occurred during its cloning. […] However, it is possible that these two receptor isoforms are functionally and/or pharmacologically distinct.

[3] = test system: Parathyroid Cell Calcium Receptor; assay: EC50 in parathyroid cells or HEK 293/pHuPCaR4.0 cells loaded with fura-2; format: cell-based, calves and humans; details: parathyroid cells or HEK 293/pHuPCaR4.0, fura-2; cell type not given per value
Method: This section describes procedures used to obtain parathyroid cells from calves and humans, and to use the parathyroid cells to measure calcium receptor activity.
Human parathyroid glands, were obtained from patients undergoing surgical removal of parathyroid tissue for primary or uremic hyperparathyroidism (uremic HPT), and were treated similarly to bovine tissue.
Glands were trimmed of excess fat and connective tissue and then minced with fine scissors into cubes approximately 2-3 mm on a side. Dissociated parathyroid cells were prepared by collagenase digestion and then purified by centrifugation in Percoll buffer.
Primary culture also has the advantage that cells can be labeled with isotopes to near isotopic equilibrium, as is necessary for studies involving measurements of inositol phosphate metabolism.
ITS+ is a premixed solution containing insulin, transferrin, selenium, and bovine serum albumin (BSA)-linolenic acid (Collaborative Research, Bedford, Mass.). The cells were then transferred to plastic flasks (75 or 150 cm^2; Falcon) and incubated overnight at 37° C. in a humid atmosphere of 5% CO2. No serum is added to these overnight cultures, since its presence allows the cells to attach to the plastic, undergo proliferation, and dedifferentiate.
The cells were then pelleted, resuspended in the same buffer, but lacking the ester, and incubated a further 15 minutes at 37° C. The cells were subsequently washed twice with PCB containing 0.5 mM CaCl2 and 0.5% BSA and maintained at room temperature (about 20° C.). Immediately before use, the cells were diluted five-fold with prewarmed 0.5 mM CaCl2 -PCB to obtain a final BSA concentration of 0.1%. The concentration of cells in the cuvette used for fluorescence recording was 1-2×10^6 /ml.
The fluorescence of indicator-loaded cells was measured at 37° C. in a spectrofluorimeter (Biomedical Instrumentation Group, University of Pennsylvania, Philadelphia, Pa.) equipped with a thermostated cuvette holder and magnetic stirrer using excitation and emission wavelengths of 340 and 510 nm, respectively. […] To correct the calibration for dye leakage, cells were placed in the cuvette and stirred at 37° C. for 2-3 minutes. The cell suspension was then removed, the cells pelleted, and the supernatant returned to a clean cuvette. […] This estimate was subtracted from the apparent Fmin.
HEK 293 cells transfected with pHuPCaR4.0 were loaded with fura-2 by incubating the cells in Dulbecco's modified Eagle's media buffered with 20 mM HEPES containing about 5 μM […] for one hour at room temperature. Cell were then rinsed with Hank's balanced salt solution buffered with 20 mM HEPES containing 1 mM CaCl2 and 1 mM MgCl2. Compounds to be tested were then added to the cells and fluorescence was measured (excitation and emission wavelengths of 340 and 510 nm, respectively).

human calcium receptor = molecular target: T1, human calcium receptor (Homo sapiens, UniProt P41180, R990G); assay: increases in [Ca^2+ ]i in HEK-293 cells expressing the human calcium receptor (fura-2 loaded HEK 293/pHuPCaR4.0 cells), % activity; format: cell-based
T1 construct: expressed in transfected cells; host or cells: HEK 293
T1 sequence (P41180 20-1078 R990G): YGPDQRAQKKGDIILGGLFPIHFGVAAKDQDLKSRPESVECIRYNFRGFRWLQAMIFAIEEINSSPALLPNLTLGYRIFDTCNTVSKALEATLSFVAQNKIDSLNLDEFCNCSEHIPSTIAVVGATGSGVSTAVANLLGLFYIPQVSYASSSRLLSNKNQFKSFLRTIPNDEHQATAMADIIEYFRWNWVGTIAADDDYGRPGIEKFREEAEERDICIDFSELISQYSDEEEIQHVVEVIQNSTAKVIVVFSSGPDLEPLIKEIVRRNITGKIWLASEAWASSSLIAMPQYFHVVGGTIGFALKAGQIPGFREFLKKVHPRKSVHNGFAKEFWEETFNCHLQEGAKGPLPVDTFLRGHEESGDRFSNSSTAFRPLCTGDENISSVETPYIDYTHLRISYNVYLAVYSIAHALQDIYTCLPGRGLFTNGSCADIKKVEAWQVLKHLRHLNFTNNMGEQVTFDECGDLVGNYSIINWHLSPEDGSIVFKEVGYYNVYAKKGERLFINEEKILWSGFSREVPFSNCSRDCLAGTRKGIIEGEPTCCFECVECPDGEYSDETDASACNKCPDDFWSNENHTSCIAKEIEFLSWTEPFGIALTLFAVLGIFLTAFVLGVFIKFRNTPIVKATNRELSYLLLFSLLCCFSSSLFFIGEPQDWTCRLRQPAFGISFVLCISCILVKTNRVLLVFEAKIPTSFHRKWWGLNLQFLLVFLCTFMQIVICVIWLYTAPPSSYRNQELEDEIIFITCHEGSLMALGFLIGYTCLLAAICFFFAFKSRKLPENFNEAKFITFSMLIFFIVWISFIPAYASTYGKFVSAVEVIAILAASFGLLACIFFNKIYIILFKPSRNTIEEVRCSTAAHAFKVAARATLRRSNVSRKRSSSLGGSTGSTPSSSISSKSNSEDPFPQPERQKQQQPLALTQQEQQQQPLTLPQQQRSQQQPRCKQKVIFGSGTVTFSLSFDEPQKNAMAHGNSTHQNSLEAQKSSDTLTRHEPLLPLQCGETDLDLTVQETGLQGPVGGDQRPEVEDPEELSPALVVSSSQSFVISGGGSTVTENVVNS

human subjects = assay: pharmacological activity in human subjects after oral doses; format: in vivo; details: 10-400 mg oral doses
Description: Proper dosing can also be carried out using standard techniques. […] Thus, the glucuronide conjugate of 17Q may be exerting some beneficial effect.

For `COc1cccc([C@@H](C)NCCCc2ccccc2)c1` [NPS R-467], the “binding site on the calcium receptor” value (calcium receptor) is given as “binds to the calcium receptor at a different site (i.e., an allosteric site) than extracellular calcium”, the “increases in [Ca^2+ ]i” value [1] is given as “Robust increases in [Ca^2+ ]i” and the “activation of oocyte-expressed calcium receptor” value [2] is given as “activated the oocyte-expressed receptor at about the same concentrations known to be effective for the native parathyroid cell receptor”.
For `COc1cccc([C@@H](C)NCCCc2ccccc2Cl)c1` [NPS R-568, reference compound], the EC50 [3] was 600 nM, the “activation of oocyte-expressed calcium receptor” value [2] was “activated the oocyte-expressed receptor at about the same concentrations known to be effective for the native parathyroid cell receptor” and the “% activity” value (human calcium receptor; 33 ng/mL) was 69%. The “% activity” value (human calcium receptor; 330 ng/mL) was 95% and the “pharmacological activity in human subjects” value (human subjects) was “showed pharmacological activity in human subjects”.
